Data taken from patent US10738101B2, “Method for selecting odor-controlling substance” (Kao Corporation, priority 2015, dated 2020).

Key:
OR5AN1 = molecular target: T1, OR5AN1 (Homo sapiens, UniProt Q8NGI8); assay: Luciferase reporter gene assay, OR5AN1-expressing HEK293 cells; assay type: cell-based; conditions: 0.3 μM to 100 μM, vs Mock cells, FIG. 3
T1 construct: expressed in transfected cells; host or cells: HEK293
T1 sequence (Q8NGI8 1-311): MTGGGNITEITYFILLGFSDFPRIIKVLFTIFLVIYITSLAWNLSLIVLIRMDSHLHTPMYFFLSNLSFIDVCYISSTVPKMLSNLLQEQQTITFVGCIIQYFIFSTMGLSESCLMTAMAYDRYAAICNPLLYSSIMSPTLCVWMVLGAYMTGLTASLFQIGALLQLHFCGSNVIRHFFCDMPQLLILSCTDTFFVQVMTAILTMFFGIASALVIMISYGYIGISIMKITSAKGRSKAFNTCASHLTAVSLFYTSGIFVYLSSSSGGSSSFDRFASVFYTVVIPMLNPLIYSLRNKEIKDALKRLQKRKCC
Source text: (§1) On the basis of sequence information registered in GenBank, genes respectively encoding 370 human olfactory receptors shown in Tables 1-1 and 1-2 and genes respectively encoding the human olfactory receptors OR5AN1, OR10G4 and OR9Q2 (respectively set forth in SEQ ID NOS: 1, 3 and 5) were cloned. Each of the genes was cloned by the PCR using human genomic DNA person (G1521: Promega) as a template. Each gene amplified by the PCR was incorporated into a pENTR vector (Invitrogen) in accordance with the instruction, and was recombined to NotI and AscI sites produced downstream from a Flag-Rho tag sequence on a pME18S vector by using NotI and AscI sites present on the pENTR vector.
(§2) In 1) of Example 1, HEK293 cells on which the 370 human olfactory receptors were respectively expressed were produced. A reaction solution having a composition shown in Table 2 was prepared and allowed to stand still in a clean bench for 15 minutes, and the resultant was added by 4.4 μL per well in a 384-well plate (BioCoat). Subsequently, the HEK293 cells (20×10^4 cells/cm^2) were seeded by 40 μL per well, and the resultant was cultured for 24 hours in an incubator kept at 37° C. and 5% CO2.
(§3) In 2) of Example 1 and Examples 2 and 3, HEK293 cells in which the human olfactory receptor OR5AN1, OR10G4, OR9Q2 or OR1A1 was expressed were produced. A reaction solution having a composition shown in Table 3 was prepared and allowed to stand still in a clean bench for 15 minutes, and the resultant was added by 10 μL per well in a 96-well plate (BioCoat). Subsequently, the HEK293 cells (3×10^5 cells/cm^2) were seeded by 90 μL per well, and the resultant was cultured for 24 hours in an incubator kept at 37° C. and 5% CO2. Cells obtained under conditions for not expressing the olfactory receptor (Mock) were also prepared to be used as a control, and were used similarly in an experiment.
(§4) The olfactory receptor expressed on the HEK293 cells increases the intracellular cAMP amount by activating adenylate cyclase in conjugation with intracellular Gαs. In the measurement of odor response in this study, luciferase reporter gene assay for monitoring the increase of the intracellular cAMP amount as a luminescence value derived from a firefly luciferase gene (fluc2P-CRE-hygro) was employed. Besides, a fused Renilla luciferase (hRluc-CMV) gene was simultaneously transferred downstream of the CMV promoter, so as to be used as an internal standard for correcting the gene transfer efficiency or an error in the number of cells. For measuring the activity of the luciferase, Dual-Glo(™) Luciferase Assay System (Promega) was used, and the measurement was performed in accordance with the operation instruction of the product. Under each of various stimulation conditions, a value fLuc/hRluc obtained by dividing a firefly luciferase-derived luminescence value by a Renilla luciferase-derived luminescence value was calculated. A value obtained by dividing a value fLuc/hRluc induced by stimulation with an odorous substance by a value fLuc/hRluc of a cell not stimulated with the odorous substance was obtained as fold increase, which was used as an index of the response intensity. A dose-response curve was analyzed using Graph Pad Prism.
(§5) The medium was removed from each of the cultures of the olfactory receptor expressing cells produced according to Reference Example 1, and an odorous substance (muscone, guaiacol or p-cresol) was added thereto. A DMEM medium (Nacalai) containing muscone or guaiacol was added to a 384-well plate containing the culture by 30 μL per well (to a final concentration of muscone of 100 μM and of guaiacol of 1 mM). Alternatively, a CD293 medium (Invitrogen) containing p-cresol was added to a 96-well plate containing the culture by 75 μL per well (to a final concentration of 1 mM). […]

muscone odor = assay: Sensory test of cross-adaptation, target odor muscone; assay type: in vivo, human; conditions: panelists, test sample smelled before target sample, FIG. 6A
Description: (§6) The cross-adaptation effect induced by the odorous substance evaluated in Example 2 was estimated by a sensory test. A glass bottle (No. 11, manufactured by Hakuyo Glass Co., Ltd., capacity: 110 mL) was charged with a target odorous substance to be used as a target sample. As the target odorous substance, muscone, guaiacol or p-cresol was used. As the muscone, a cotton ball soaked with 1 mg of muscone was used. As the guaiacol and p-cresol, 1 mL of a mineral oil (Sigma-Aldrich) solution in a concentration of 10 ppm was used. In a similar manner, a glass bottle was charged with a test substance to be used as a test sample. As the test sample, 5 mg of an ethyl vanillin powder, or 1 mL of a mineral oil (Sigma-Aldrich) solution of p-cresyl acetate, p-cresyl isobutyrate or p-methyl quinoline prepared to a concentration of 1,000 ppm was used.
(§7) The sensory test was performed by a single blind method by five to eight panelists. The target sample was first presented to each panelist, who was caused to replay on the odor intensity. Next, the test sample was presented for 2 minutes or until the odor could not be perceived. Thereafter, the target sample was presented again, and the panelist was caused to replay on the odor intensity. This series of operations was defined as one set, and the sensory test was carried out with four sets per day per panelist set as the upper limit. A recess of at least 10 minutes or more was provided between the sets.
The panelist was caused to plot the estimated intensity of the target odor on a straight line of 9.5 cm with both ends respectively provided with criteria “No odor” and “Strong odor”. A distance (A) between the position of the target odor intensity plotted in the initial estimate and the end of “No odor”, and a distance (B) between the position of the target odor intensity plotted in the second estimate and the end of “No odor” were obtained, so as to calculate percentage odor intensity of the initial estimate [B/A*100−100]. […]

OR1A1 = molecular target: T2, OR1A1 (Homo sapiens, UniProt Q9P1Q5); assay: Luciferase reporter gene assay, OR1A1-expressing HEK293 cells; assay type: cell-based; conditions: 0.3 μM to 100 μM, vs Mock cells, FIG. 4
T2 construct: expressed in transfected cells; host or cells: HEK293
T2 sequence (Q9P1Q5 1-309): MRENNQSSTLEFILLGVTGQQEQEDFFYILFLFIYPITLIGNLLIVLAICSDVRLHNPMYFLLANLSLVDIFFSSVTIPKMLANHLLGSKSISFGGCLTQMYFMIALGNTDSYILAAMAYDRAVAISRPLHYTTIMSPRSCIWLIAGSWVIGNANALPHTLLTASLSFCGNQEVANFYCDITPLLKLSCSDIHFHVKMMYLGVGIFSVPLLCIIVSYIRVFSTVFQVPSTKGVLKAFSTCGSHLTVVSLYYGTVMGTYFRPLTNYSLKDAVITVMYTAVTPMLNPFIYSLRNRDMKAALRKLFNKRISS
Source text: as §1, §2
In 2) of Example 1 and Examples 2 and 3, HEK293 cells in which the human olfactory receptor OR5AN1, OR10G4, OR9Q2 or OR1A1 was expressed were produced. […]
The olfactory receptor expressed on the HEK293 cells increases the intracellular cAMP amount by activating adenylate cyclase in conjugation with intracellular Gαs. In the measurement of odor response in this study, luciferase reporter gene assay for monitoring the increase of the intracellular cAMP amount as a luminescence value derived from a firefly luciferase gene (fluc2P-CRE-hygro) was employed. […] Under each of various stimulation conditions, a value fLuc/hRluc obtained by dividing a firefly luciferase-derived luminescence value by a Renilla luciferase-derived luminescence value was calculated. […] A dose-response curve was analyzed using Graph Pad Prism. […]

OR10G4 = molecular target: T3, OR10G4 (Homo sapiens, UniProt Q8NGN3); assay: Luciferase reporter gene assay, OR10G4-expressing HEK293 cells; assay type: cell-based; conditions: for responsiveness of OR10G4 (fold increase): FIG. 5A, 5C
T3 construct: expressed in transfected cells; host or cells: HEK293
T3 sequence (Q8NGN3 1-311): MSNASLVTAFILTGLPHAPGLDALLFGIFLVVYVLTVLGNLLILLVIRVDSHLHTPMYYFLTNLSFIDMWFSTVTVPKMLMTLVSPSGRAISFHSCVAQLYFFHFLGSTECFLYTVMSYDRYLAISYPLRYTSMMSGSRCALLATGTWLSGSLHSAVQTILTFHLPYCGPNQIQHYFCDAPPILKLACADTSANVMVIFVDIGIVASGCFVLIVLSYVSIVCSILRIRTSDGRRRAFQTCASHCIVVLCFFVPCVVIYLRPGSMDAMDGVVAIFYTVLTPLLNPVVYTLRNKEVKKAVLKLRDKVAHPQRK
Source text: as §1, §2, §3
as §4, with “For measuring the activity of the luciferase, Dual-Glo(™) Luciferase Assay System (Promega) was used, and the measurement was performed in accordance with the operation instruction of the product.” left out, “A value obtained by dividing a value fLuc/hRluc induced by stimulation with an odorous substance by a value fLuc/hRluc of a cell not stimulated with the odorous substance was obtained as fold increase, which was used as an index of the response intensity.” left out, “Prism. […]” for “Prism.”

odor of guaiacol = assay: Sensory test of cross-adaptation, target odor guaiacol; assay type: in vivo, human; conditions: panelists, test sample smelled before target sample, FIG. 6B
Description: as §6
as §7, with “A recess of at least 10 minutes or more was provided between the sets.” left out

OR9Q2 = molecular target: T4, OR9Q2 (Homo sapiens, UniProt Q8NGE9); assay: Luciferase reporter gene assay, OR9Q2-expressing HEK293 cells; assay type: cell-based; conditions: for responsiveness of OR9Q2 (fold increase): FIG. 2, 5B, 5C
T4 construct: expressed in transfected cells; host or cells: HEK293
T4 sequence (Q8NGE9 1-314): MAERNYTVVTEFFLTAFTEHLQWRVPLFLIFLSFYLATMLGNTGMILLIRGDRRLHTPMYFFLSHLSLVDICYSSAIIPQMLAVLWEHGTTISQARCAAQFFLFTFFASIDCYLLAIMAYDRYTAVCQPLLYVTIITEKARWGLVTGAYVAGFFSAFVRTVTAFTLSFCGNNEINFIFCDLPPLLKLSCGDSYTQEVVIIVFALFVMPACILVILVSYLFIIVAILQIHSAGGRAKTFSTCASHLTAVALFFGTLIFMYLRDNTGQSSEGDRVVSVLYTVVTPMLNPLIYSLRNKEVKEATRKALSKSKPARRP
Source text: as §1, §2, §3, §4, §5

odor of p-cresol = assay: Sensory test of cross-adaptation, target odor p-cresol; assay type: in vivo, human; conditions: panelists, test sample smelled before target sample, FIG. 6C
Description: as §6, §7
The panelist was caused to plot the estimated intensity of the target odor on a straight line of 9.5 cm with both ends respectively provided with criteria “No odor” and “Strong odor”. A distance (A) between the position of the target odor intensity plotted in the initial estimate and the end of “No odor”, and a distance (B) between the position of the target odor intensity plotted in the second estimate and the end of “No odor” were obtained, so as to calculate percentage odor intensity of the initial estimate [B/A*100−100]. As this value is smaller, the intensity of the target odor perceived in the second estimate is suppressed stronger as compared with that in the initial estimate, namely, stronger cross-adaptation is induced. If this value is −100%, it means that the target odor was not perceived at all in the second estimate.

O=C1CCCCC=CCCCCCCCCCO1 [Ambrettolide, 17-oxacycloheptadec-6-en-1-one]
activation of OR5AN1 response (fold increase) (OR5AN1): did not induce the response
cross-adaptation of muscone odor induced by test substance (muscone odor): did not induce the cross-adaptation

CC/C=C\CCO [Cis-3-hexenol]
activation of OR5AN1 response (fold increase) (OR5AN1): did not induce the response
activation of OR1A1 response (fold increase) (OR1A1): activated
cross-adaptation of muscone odor induced by test substance (muscone odor): did not induce the cross-adaptation

O=C1CCCCCCCCCCCCCCO1 [Exaltolide (R), 16-oxacyclohexadecan-1-one]
activation of OR5AN1 response (fold increase) (OR5AN1): activating the response

O=C1CCCCCCC=CCCCCCCC1 [Globanone, cyclohexadec-8-en-1-one]
activation of OR5AN1 response (fold increase) (OR5AN1): activating the response

CC(C)(O)CCCC1=CCC(C=O)CC1 [Lyral (R), 4-(4-hydroxy-4-methyl-pentyl)-cyclohex-3-enecarbaldehyde]
activation of OR5AN1 response (fold increase) (OR5AN1): did not induce the response

CC1CC=CCCCCCCCCCC(=O)C1 (centres unmarked) [Muscenone delta, 3-methyl-5-cyclopentadecen-1-one]
activation of OR5AN1 response (fold increase) (OR5AN1): activating the response

Cc1c([N+](=O)[O-])c(C)c([N+](=O)[O-])c(C(C)(C)C)c1[N+](=O)[O-] [Musk xylol, 1-tert-butyl-3,5-dimethyl-2,4,6-trinitrobenzene]
activation of OR5AN1 response (fold increase) (OR5AN1): activating the response

CCOc1cc(C=O)ccc1O [ethyl vanillin, 3-ethoxy-4-hydroxybenzaldehyde]
responsiveness of OR10G4 (fold increase) (OR10G4): had responsiveness
cross-adaptation of guaiacol odor induced by test substance (odor of guaiacol): induced

COc1ccccc1O [guaiacol, 2-methoxyphenol]
responsiveness of OR10G4 (fold increase) (OR10G4): had responsiveness
responsiveness of OR10G4 among 370 olfactory receptors (response intensity, fold increase) (OR10G4; screen of 370 human olfactory receptors, guaiacol 1 mM, FIG. 1): highest responsiveness

Cc1ccc(O)cc1 [p-cresol, p-Cresol]
responsiveness of OR9Q2 (fold increase) (OR9Q2): have responsiveness
concentration dependency of OR9Q2 response (OR9Q2; different concentrations, FIG. 2): showed response to p-cresol dependently on the concentration
responsiveness of OR9Q2 among 370 olfactory receptors (response intensity, fold increase) (OR9Q2; screen of 370 human olfactory receptors, p-cresol 1 mM, FIG. 1): highest responsiveness

CC(=O)Oc1ccc(C)cc1 [p-cresyl acetate, (4-methylphenyl)acetate]
cross-adaptation of p-cresol odor induced by test substance (odor of p-cresol): induced
responsiveness of OR9Q2 (fold increase) (OR9Q2): have responsiveness

Cc1ccc(OC(=O)C(C)C)cc1 [p-cresyl isobutyrate, (4-methylphenyl)2-methylpropanoate]
cross-adaptation of p-cresol odor induced by test substance (odor of p-cresol): induced
responsiveness of OR9Q2 (fold increase) (OR9Q2): have responsiveness

Cc1ccc2ncccc2c1 [p-methyl quinoline, 6-methyl quinoline]
cross-adaptation of p-cresol odor induced by test substance (odor of p-cresol): induced
responsiveness of OR9Q2 (fold increase) (OR9Q2): have responsiveness

OCCc1ccccc1 [phenyl ethyl alcohol (PEA), 2-phenylethanol]
activation of OR5AN1 response (fold increase) (OR5AN1): did not induce the response
activation of OR1A1 response (fold increase) (OR1A1): activated
cross-adaptation of muscone odor induced by test substance (muscone odor): did not induce the cross-adaptation
